The results in this text go back to patent publication US10226448B2, “3-(1H-pyrrolo[3,2-C]pyridin-2-yl)-1H-pyrazolo[3,4-B]pyridines and therapeutic uses thereof” (Samumed, LLC, priority 2015, dated 2019).

A value given as a limit tells only on which side of the number the result lay.

Common to all, as to assay type: cell-based
One assay has as its system SW480 colon cancer cells. Nature of the assay: Cell viability assay (CellTiter-Blue) in SW480 colon cancer cells. The note with it: Homo sapiens; for EC50: 96 h, SW480 cell viability, four days, CellTiter-Blue; for inhibition at 10 µM: SW480, read-out: percent inhibition at 10 μM. The method in brief: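 Fluorescence from resazurin reduced to resorufin by metabolically active cells was the read-out, taken after ~3 h with CellTiter-Blue.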
For orientation: Alamar Blue is a resazurin reagent that responds to reducing activity.

Assay [1] relates to Wnt activity (Sp5-Luc reporter, TCF/LEF binding sites) in SW480 colon carcinoma cells. Put plainly: Wnt activity screening assay: Sp5-Luc reporter gene assay in SW480 cells. The note with it: Homo sapiens; for EC50: Sp5-Luc reporter, SW480 cells, overnight incubation; for inhibition at 10 µM: SW480, read-out: percent inhibition at 10 μM. The method in brief: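 SW480 cells stably carrying a luciferase reporter under a human Sp5 promoter with eight TCF/LEF sites, plated at 4,000 cells/well in 1% FBS medium. Luminescence read with BrightGlo, normalized to DMSO-treated cells; EC50 from four-parameter variable-slope nonlinear regression.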
For orientation: Reporter assays use an easily measured gene product as a stand-in for the process of interest.

Assay [2] relates to primary human mesenchymal stem cells (hMSCs). Nature of the assay: Induction of chondrogenesis in primary human mesenchymal stem cells (chondrogenic nodules, Rhodamine B / Nile Red). To be noted: 6 days; for Emax: relative to TGF-β3 (10 ng/mL) positive control, read-out: Max. Activity as % TGF-β3 activity; for EC50: concentration required to induce 50% levels of chondrogenesis vs TGF-β3, read-out: Conc (nM) of 50% TGF-β3 activity. The text has this: Representative compounds were screened using primary human mesenchymal stem cells (hMSCs) to determine their ability to induce chondrogenesis (process by which cartilage is developed).
Human Mesenchymal Stem Cell Culture: Primary human mesenchymal stem cells (hMSCs) were purchased from Lonza (Walkersville, Md.) and expanded in Mesenchymal Stem Cell Growth Media (Lonza). Cells between passage 3 and 6 were used for the experiments.
To image chondrogenic nodules, the cells were fixed using 4% formaldehyde (Electron Microscopy Sciences), and stained with 2 μg/mL Rhodamine B (Sigma-Aldrich) and 20 μM Nile Red (Sigma-Aldrich) [Johnson K., et. al, A Stem Cell-Based Approach to Cartilage Repair, Science, (2012). […] Number of nodules in each well was normalized to the average of 3 DMSO treated wells on the same plate using Excel (Microsoft Inc.). The normalized averages (fold change over DMSO) of 3 replicate wells for each compound concentration were calculated. Due to solubility limitations of some of the compounds, curve fitting was incomplete leading to inaccurate EC50 determinations.
Using TGF-β3 as a positive control, the concentration of representative compounds required to induce 50% levels of chondrogenesis is reported. In addition, the maximum activity of each compound and the respective dose that each compound reached maximum chondrogenesis activity is reported.

The subject of assay [3] is LL29 cells (primary human fibroblasts derived from IPF patients), α-smooth muscle actin. Put plainly: Inhibition of the fibrotic process: αSMA staining in TGF-β1 treated primary human fibroblasts from IPF patients (LL29 cells). The note with it: Fibroblast; for EC50: 96 h, LL29 cells, TGF-β1 20 ng/mL, 4 days, % αSMA positive cells; for inhibition at 10 µM: read-out: percent inhibition at 10 μM. In outline:
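IPF-patient-derived LL29 lung fibroblasts in F12 with 1% FBS, stimulated with TGF-β1 alongside compound; TGF-β1 plus DMSO wells served as controls. After 4 days, nuclei stained with 1 μM SYTOX green for 30 min at room temperature, alongside αSMA staining.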

In the next assay the test system is IL-6 in THP-1 cells. Nature of the assay: IL-6 inhibition in LPS-stimulated THP-1 human monocyte cells (HTRF). To be noted: for EC50: IL-6 inhibition, LPS-stimulated THP-1 cells, HTRF, 10-point dose-response starting from 10 μM; for inhibition at 10 µM: THP-1, read-out: percentage in parentheses beside EC50 >10. The method in brief:
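THP-1 cells were serum-reduced (1% FBS, 24 h), plated at 5000 cells/well with compound for 2 h at 37 °C, then stimulated 22 h with 500 ng/mL LPS. Secreted IL-6 was quantified by HTRF (665/620 nm ratio). Signals were normalised to DMSO, and EC50 was fitted by four-parameter nonlinear regression.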

As to `CCCC(=O)Nc1cncc(-c2cnc3[nH]nc(-c4cc5c(-c6ccccc6F)nccc5[nH]4)c3c2)c1` [Compound 73, N-(5-(3-(4-(2-Fluorophenyl)-1H-pyrrolo[3,2-c]pyridin-2-yl)-1H-pyrazolo[3,4-b]pyridin-5-yl)pyridin-3-yl)butyramide], the EC50 with SW480 colon cancer cells was 348 nM; in assay [1], 472 nM; in assay [3], 2660 nM; with IL-6 in THP-1 cells, 36 nM. In addition, the Emax in assay [2] stood at 53%.

On to `Fc1ccccc1-c1nccc2[nH]c(-c3n[nH]c4ncc(-c5cncnc5)cc34)cc12` [Compound 83, 3-(4-(2-Fluorophenyl)-1H-pyrrolo[3,2-c]pyridin-2-yl)-5-(pyrimidin-5-yl)-1H-pyrazolo[3,4-b]pyridine], for which the EC50 was 2080 nM with SW480 colon cancer cells, 4060 nM in assay [1], 1210 nM in assay [3] and over 10000 nM in the assay on IL-6 in THP-1 cells. Besides, the Emax in assay [2] worked out at 36%. Also, the inhibition at 10 µM in the assay on IL-6 in THP-1 cells came to 28.3%.

For `CC(C)C(=O)Nc1cncc(-c2cnc3[nH]nc(-c4cc5c(-c6cccc(F)c6)nccc5[nH]4)c3c2)c1` [Compound 9, N-(5-(3-(4-(3-Fluorophenyl)-1H-pyrrolo[3,2-c]pyridin-2-yl)-1H-pyrazolo[3,4-b]pyridin-5-yl)pyridin-3-yl)isobutyramide], the EC50 was 770 nM with SW480 colon cancer cells, 575 nM in assay [1], 622 nM in assay [3] and 206 nM with IL-6 in THP-1 cells. Further, the Emax in assay [2] was determined as 29%.

As to `CC(C)CC(=O)Nc1cncc(-c2cnc3[nH]nc(-c4cc5c(-c6cc(F)cc(CNS(C)(=O)=O)c6)nccc5[nH]4)c3c2)c1` [Compound 478, N-(5-(3-(4-(3-Fluoro-5-(methylsulfonamidomethyl)phenyl)-1H-pyrrolo[3,2-c]pyridin-2-yl)-1H-pyrazolo[3,4-b]pyridin-5-yl)pyridin-3-yl)-3-methylbutanamide], the EC50 with SW480 colon cancer cells was 4090 nM; in assay [1], 1960 nM; in assay [2], 300 nM; in assay [3] it was over 10000 nM; with IL-6 in THP-1 cells it was 537 nM. Further, the Emax in assay [2] was 52%. Besides, the inhibition at 10 µM in assay [3] amounted to 0%.

Consider `Fc1ccccc1-c1nccc2[nH]c(-c3n[nH]c4ncc(-c5cn[nH]c5)cc34)cc12` [Compound 539, 3-(4-(2-Fluorophenyl)-1H-pyrrolo[3,2-c]pyridin-2-yl)-5-(1H-pyrazol-4-yl)-1H-pyrazolo[3,4-b]pyridine], for which the EC50 amounted to 261 nM in the assay with SW480 colon cancer cells, 56 nM in assay [1], 76 nM in assay [3] and 101 nM in the assay with IL-6 in THP-1 cells. Moreover, the Emax in assay [2] stood at 49%.

As for `CC(C)Nc1cncc(-c2cnc3[nH]nc(-c4cc5c(-c6ccccc6F)nccc5[nH]4)c3c2)c1` [Compound 68, 5-(3-(4-(2-Fluorophenyl)-1H-pyrrolo[3,2-c]pyridin-2-yl)-1H-pyrazolo[3,4-b]pyridin-5-yl)-N-isopropylpyridin-3-amine], the EC50 with SW480 colon cancer cells came to 959 nM; in assay [1] it was 435 nM; in assay [2], 10 nM; in assay [3] it was 1890 nM; with IL-6 in THP-1 cells it was 235 nM. For the same compound, in assay [2], the Emax is 76%.

Turning to `CCCCC(=O)Nc1cncc(-c2cnc3[nH]nc(-c4cc5c(-c6ccc(F)cc6)nccc5[nH]4)c3c2)c1` [Compound 47, N-(5-(3-(4-(4-Fluorophenyl)-1H-pyrrolo[3,2-c]pyridin-2-yl)-1H-pyrazolo[3,4-b]pyridin-5-yl)pyridin-3-yl)pentanamide], the EC50 with SW480 colon cancer cells was 839 nM; in assay [1], over 10000 nM; in assay [2] it was 30 nM; in assay [3], 73 nM; in the assay with IL-6 in THP-1 cells, over 10000 nM. The inhibition at 10 µM is 46.9% in assay [1] and 24.7% in the assay with IL-6 in THP-1 cells. In assay [2], the Emax came out at 85%.

With `O=C(Nc1cncc(-c2cnc3[nH]nc(-c4cc5cnccc5[nH]4)c3c2)c1)c1ccccc1` [Compound 263, N-(5-(3-(1H-Pyrrolo[3,2-c]pyridin-2-yl)-1H-pyrazolo[3,4-b]pyridin-5-yl)pyridin-3-yl)benzamide], the EC50 in the assay on SW480 colon cancer cells is over 10000 nM; in assay [1], over 10000 nM; in assay [2], 30 nM; in assay [3], over 10000 nM; in the assay with IL-6 in THP-1 cells it was over 10000 nM. In addition, the inhibition at 10 µM worked out at 24.6% in the assay with SW480 colon cancer cells, 65.5% in assay [1], 0% in assay [3] and 30% in the assay with IL-6 in THP-1 cells. For the same compound, the Emax in assay [2] came out at 70%.

For the compound `Fc1cccc(-c2nccc3[nH]c(-c4n[nH]c5ncc(-c6cccnc6)cc45)cc23)c1` [Compound 4, 3-(4-(3-Fluorophenyl)-1H-pyrrolo[3,2-c]pyridin-2-yl)-5-(pyridin-3-yl)-1H-pyrazolo[3,4-b]pyridine], the EC50 in the assay on SW480 colon cancer cells amounted to 3210 nM; in assay [1], 464 nM; in assay [3], 440 nM; in the assay on IL-6 in THP-1 cells it was 90 nM. Besides, the Emax in assay [2] turned out to be 50%.

As to `CC(C)(C)C(=O)Nc1cncc(-c2cnc3[nH]nc(-c4cc5c(-c6ccc(F)cc6)nccc5[nH]4)c3c2)c1` [Compound 36, N-(5-(3-(4-(4-Fluorophenyl)-1H-pyrrolo[3,2-c]pyridin-2-yl)-1H-pyrazolo[3,4-b]pyridin-5-yl)pyridin-3-yl)pivalamide], the EC50 with SW480 colon cancer cells is 553 nM; in assay [1], 980 nM; in assay [3], 579 nM; in the assay with IL-6 in THP-1 cells it was 3230 nM. The Emax in assay [2] stood at 44%.

In the case of `CCCCC(=O)Nc1cncc(-c2cnc3[nH]nc(-c4cc5cnccc5[nH]4)c3c2)c1` [Compound 271, N-(5-(3-(1H-Pyrrolo[3,2-c]pyridin-2-yl)-1H-pyrazolo[3,4-b]pyridin-5-yl)pyridin-3-yl)pentanamide], the EC50 with SW480 colon cancer cells came to 4030 nM; in assay [1] it was 1470 nM; in assay [3], 4100 nM; in the assay with IL-6 in THP-1 cells, 2860 nM. Moreover, in assay [2], the Emax was found to be 31%.

Take `O=C(Nc1cncc(-c2cnc3[nH]nc(-c4cc5c(-c6ccccc6F)nccc5[nH]4)c3c2)c1)c1ccccc1` [Compound 67, N-(5-(3-(4-(2-Fluorophenyl)-1H-pyrrolo[3,2-c]pyridin-2-yl)-1H-pyrazolo[3,4-b]pyridin-5-yl)pyridin-3-yl)benzamide]: the EC50 with SW480 colon cancer cells was 1620 nM; in assay [1], 1980 nM; in assay [2] it was 10 nM; in assay [3] it was over 10000 nM; in the assay on IL-6 in THP-1 cells, over 10000 nM. Also, the Emax in assay [2] was 101%. The figures for the inhibition at 10 µM (in assay [3]; in the assay on IL-6 in THP-1 cells) were 6.3% and 41.4%, respectively.

As to `CCNCc1cncc(-c2cnc3[nH]nc(-c4cc5c(-c6cc(F)cc(CNS(C)(=O)=O)c6)nccc5[nH]4)c3c2)c1` [Compound 482, N-(3-(2-(5-(5-((Ethylamino)methyl)pyridin-3-yl)-1H-pyrazolo[3,4-b]pyridin-3-yl)-1H-pyrrolo[3,2-c]pyridin-4-yl)-5-fluorobenzyl)methanesulfonamide], the EC50 in the assay on SW480 colon cancer cells was over 10000 nM; in assay [1], over 10000 nM; in assay [2], 300 nM; in assay [3], over 10000 nM; in the assay on IL-6 in THP-1 cells, 2240 nM. Further, the inhibition at 10 µM worked out at 16.6% with SW480 colon cancer cells, 8.8% in assay [1] and 0% in assay [3]. In addition, the Emax in assay [2] came out at 61%.

In the case of `CN(C)c1cncc(-c2cnc3[nH]nc(-c4cc5cnccc5[nH]4)c3c2)c1` [Compound 259, 5-(3-(1H-Pyrrolo[3,2-c]pyridin-2-yl)-1H-pyrazolo[3,4-b]pyridin-5-yl)-N,N-dimethylpyridin-3-amine], the EC50 is 1630 nM in the assay on SW480 colon cancer cells; 3760 nM in assay [1]; 10 nM in assay [2]; 1430 nM in assay [3]; over 10000 nM in the assay on IL-6 in THP-1 cells. For the same compound, the Emax in assay [2] was 80%. For the same compound, in the assay with IL-6 in THP-1 cells, the inhibition at 10 µM was 20.1%.
